Literature values, collected in patent US20070243268A1, “Compositions for regulating intestinal disorders and methods of use thereof” (priority 2005, published 2007).

System: prostate cancer
Conditions: 970 men, 200 mcg selenium daily (as selenium-enriched yeast) for 4.5 years

## [Se] [selenium]
  reduction in the incidence of prostate cancer: 63%
